A value given as a limit tells only on which side of the number the result lay.

The first data set deals with genotype 1b (Con-1) HCV replicon. The data set can be described thus: HCV replicon luciferase assay, genotype 1b. In kind it is cell-based. The following applies: Hepatitis C virus, Huh-7, 72 h, Huh-7 cells with genotype 1b HCV replicon, Renilla luciferase, 3 days incubation; class symbol. On the procedure: The cell lines used to evaluate compounds consist of a human hepatocyte derived cell line (Huh-7) that constitutively expresses a genotype 1b (Con-1) HCV replicon or a genotype 1b (Con-1) HCV replicon with an asparagine replacing the cysteine at amino acid 316, or a genotype 2a (JFH-1) replicon, containing a Renilla luciferase reporter gene. These cells were maintained in Dulbecco's modified Eagle medium (DMEM) containing 10% FBS, 100 U/mL penicillin/streptomycin and 1.0 mg/mL G418.
To evaluate compound efficacy, titrated compounds were transferred to sterile 384-well tissue culture treated plates, and the plates were seeded with HCV replicon cells (50 μL at a density of 2.4×10^3 cells/well) in DMEM containing 4% FBS (final DMSO concentration at 0.5%). After 3 days incubation at 37° C., cells were analyzed for Renilla Luciferase activity using the EnduRen substrate (Promega cat #E6485) according to the manufacturer's directions. Briefly, the EnduRen substrate was diluted in DMEM and then added to the plates to a final concentration of 7.5 μM. The plates were incubated for at least 1 h at 37° C. then read on a Viewlux Imager (PerkinElmer) using a luminescence program. The 50% effective concentration (EC50) was calculated using the four-parameter logistic formula noted above.
For orientation: A replicon is a self-replicating genome or part of one, used to study replication in cells.
Usually EC50 stands for the concentration at which the effect is half-maximal. A lower EC50 goes with greater potency. Compound `C#CC1(NC(=O)c2cccc(-c3cc4c(C(=O)NC)c(-c5ccc(F)cc5)oc4c4cc[nH]c34)c2)CCCCC1` [Compound 4017] displayed an EC50 of 0.1 to 1 µM.

Take `C#CC(CC)(CC)NC(=O)c1cccc(-c2cc3c(C(=O)NC)c(-c4ccc(F)cc4)oc3c3cc[nH]c23)c1` [Compound 4018]: the EC50 was below 0.1 µM. On the same count and under the same terms, for `C#CC(C)(CC)NC(=O)c1cccc(-c2cc3c(C(=O)NC)c(-c4ccc(F)cc4)oc3c3cc[nH]c23)c1` (stereo not shown) [Compound 4019] the value was 0.1 to 1 µM; for `CNC(=O)c1c(-c2ccc(F)cc2)oc2c1cc(-c1cccc(C(=O)NCC(F)(F)c3ccccn3)c1)c1[nH]ccc12` [Compound 4020], 0.1 to 1 µM. Compound `C#CC(C)NC(=O)c1cccc(-c2cc3c(C(=O)NC)c(-c4ccc(F)cc4)oc3c3cc[nH]c23)c1` (stereo not shown) [Compound 4021] returned an EC50 of 0.1 to 1 µM. Still for that read-out and setting: the figure for `CNC(=O)c1c(-c2ccc(F)cc2)oc2c1cc(-c1cccc(C(=O)NC(C)(C)C#N)c1)c1[nH]ccc12` [Compound 4022] is below 0.1 µM; for `CNC(=O)c1c(-c2ccc(F)cc2)oc2c1cc(OC(C)C)c1c2ccn1S(C)(=O)=O` [Compound 5001, 2-(4-fluorophenyl)-5-isopropoxy-N-methyl-6-(methylsulfonyl)-6H-furo[2,3-e]indole-3-carboxamide] it is above 1 µM. Compound `CNC(=O)c1c(-c2ccc(F)cc2)oc2c1cc(-c1cccc(C(=O)NC(C)(C)C)c1)c1c2ccn1S(C)(=O)=O` [Compound 5002] yielded an EC50 below 0.1 µM.

Regarding `CNC(=O)c1c(-c2ccc(F)cc2)oc2c1cc(-c1cccc(C(=O)NC(C)(C)C)c1)c1c2c(C)cn1S(C)(=O)=O` [Compound 5003], the EC50 was above 1 µM. On to `CNC(=O)c1c(-c2ccc(F)cc2)oc2c1cc(-c1cccc(C(=O)NC(C)(C)C)c1)c1c2cc(-c2ccccc2)n1S(C)(=O)=O` [Compound 5004], for which the 50% effective concentration (EC50) is 0.1 to 1 µM. Same read-out and setting: for `CNC(=O)c1c(-c2ccc(F)cc2)oc2c1cc(-c1cccc(C(=O)NC(C)(C)C)c1)c1c2cc(C)n1S(C)(=O)=O` [Compound 5005] the value was above 1 µM; for `CNC(=O)c1c(-c2ccc(F)cc2)oc2c1cc(-c1cccc(C(=O)NC(C)(C)c3ccc(Cl)cc3)c1)c1c2ccn1S(C)(=O)=O` [Compound 5006], below 0.1 µM; for `CNC(=O)c1c(-c2ccc(F)cc2)oc2c1cc(OC(C)C)c1c2ccn1CC(F)F` [Compound 6001], above 1 µM. Still for that read-out and setting: the figure for `CCn1ccc2c3oc(-c4ccc(F)cc4)c(C(=O)NC)c3cc(OC(C)C)c21` [Compound 6002] is above 1 µM; for `CCc1c[nH]c2c(OC(C)C)cc3c(C(=O)NC)c(-c4ccc(F)cc4)oc3c12` [Compound 6003] it is above 1 µM; for `CCN(C)C(=O)c1c(-c2ccc(F)cc2)oc2c1cc(OC(C)C)c1c2ccn1CC` [Compound 6004] it is above 1 µM.

As to `CCc1cn(CC)c2c(OC(C)C)cc3c(C(=O)NC)c(-c4ccc(F)cc4)oc3c12` [Compound 6005], the EC50 was above 1 µM. On the same count and under the same terms, for `CCN(CC(C)(C)C)C(=O)c1cccc(-c2cc3c(C(=O)NC)c(-c4ccc(F)cc4)oc3c3ccn(CC)c23)c1` [Compound 6007] the value was 0.1 to 1 µM.

The data set is the same for the next values; noted with them: Hepatitis C virus, Huh-7, 72 h, Huh-7 cells with genotype 1b HCV replicon, Renilla luciferase, 3 days incubation; numeric value.
`CNC(=O)c1c(-c2ccc(F)cc2)oc2c1cc(-c1cccc(C(=O)NC(C)(C)C#N)c1)c1[nH]ccc12` [Compound 4022] registered an EC50 of 0.015 µM.

The test system of a further data set is HCV.
Test: not given
The following applies: extended dosing of the combination regimens; cited from earlier work.
Take `CNC(=O)c1c(-c2ccc(F)cc2)oc2cc(N(CCO)S(C)(=O)=O)c(C3CC3)cc12` [HCV-796]: the hepatic toxicity result is “hepatic toxicity observed”.

Still in this data set, the particulars now being: patients, combination therapy; cited from earlier work.
Turning to alpha-interferon and ribavirin, the sustained efficacy was 40 % of patients.

The data set is the same for the next values; noted with them: recent clinical results, monotherapy; cited from earlier work.
As for pegylated alpha-interferon, the “efficacy as monotherapy compared with unmodified alpha-interferon” value is recorded as “superior to unmodified alpha-interferon”.

The record behind these values is patent US9914739B2, “6H-furo[2,3-E]indole compounds for the treatment of hepatitis C” (BRISTOL-MYERS SQUIBB COMPANY, priority 2014, dated 2018).
